Results published in patent publication US11478551B2, “Long-acting adrenomedullin derivative” (University of Miyazaki, priority 2015, dated 2022).

System: vascular occlusion model rats
Assay: Vascular occlusion model, Morris water maze test
Assay type: in vivo
Conditions: 1 and 10 nmol/kg subcutaneous, rat
Procedure: Physiological saline was administered as a vehicle to a control group. Then, the bilateral vertebral arteries were permanently occluded under anesthesia. On the next day, the bilateral common carotid arteries were occluded for 30 minutes under anesthesia using a suture thread. Then, the suture thread was removed, and blood flow was restarted. The date of the bilateral common carotid artery occlusion was defined as the date of the vascular occlusion model preparation, i.e., day 0. 9 days after the model preparation, the rat was caused to swim in the Morris water maze in one trial (training). The hidden platform test was conducted at intervals of 4 trials/day for 5 days from 10 days after the model preparation. On the fifth day of the hidden platform test (14 days after the model preparation), the probe test was conducted 1 hour after the final trial.
The Morris water maze test was conducted using an experimental apparatus described below. A round pool having a diameter of 150 cm, a height of 45 cm, and a water depth of 30 cm was provided. A clear colorless platform having a diameter of 12 cm was positioned approximately 1 cm below the water surface in the round pool. The water temperature of the round pool was set to 23±1° C. Indirect lighting was disposed within the room having the experimental apparatus placed therein, and visual cues (calendar, ball, cube and striped sheet) for the animals were arranged therein. In the test period, this arrangement was always constant. A video tracking system (Smart, Panlab, S.L.U.) was used in measurement.
The hidden platform test was conducted by procedures described below. […] The swimming time to arrive at the platform from the start (escape latency) was measured. […]
The probe test was conducted by procedures described below. […], the swimming time in a zone having the platform placed therein was measured. The stay rate (%) was calculated according to an expression given below using the measured swimming time. […]

## GL-2-branched CH3O-PEG (60k)-CH2-^αNH-(h.AM (1-52)) [Compound (8)]
  death rate associated with the operation for the bilateral common carotid artery occlusion: no significant difference
  escape latency in the hidden platform test as compared to the vehicle control group: shortened
  stay rate in the probe test as compared to the vehicle control group: significantly increased
